Values quoted from earlier work, collected in patent US11229617B2, “Topical anti-inflammatory compositions” (Achelios Therapeutics, Inc., priority 2016, dated 2022).

**Q.** With `CC(C)(O)CC(=O)O` [hydroxymethyl-butyric acid] as the compound, how does the pKa read?
**A.** 4.55

**Q.** Which pKa does the source give for `CCCCCC(=O)O` [hexanoic (caproic) acid] here?
**A.** 4.88
